PMC11945486, “TAS1R2/TAS1R3 Single-Nucleotide Polymorphisms Affect Sweet Taste Receptor Activation by Sweeteners: The SWEET Project” (Nutrients, 2025)
No end group written: not given here.

T1: human TAS1R2-C9S/TAS1R3-WT (Homo sapiens, UniProt Q7RTX0+Q8TE23)
T1 construct: expressed in transfected cells; host or cells: HEK293T-Gα16gust44
T1 sequence (Q8TE23 20-839): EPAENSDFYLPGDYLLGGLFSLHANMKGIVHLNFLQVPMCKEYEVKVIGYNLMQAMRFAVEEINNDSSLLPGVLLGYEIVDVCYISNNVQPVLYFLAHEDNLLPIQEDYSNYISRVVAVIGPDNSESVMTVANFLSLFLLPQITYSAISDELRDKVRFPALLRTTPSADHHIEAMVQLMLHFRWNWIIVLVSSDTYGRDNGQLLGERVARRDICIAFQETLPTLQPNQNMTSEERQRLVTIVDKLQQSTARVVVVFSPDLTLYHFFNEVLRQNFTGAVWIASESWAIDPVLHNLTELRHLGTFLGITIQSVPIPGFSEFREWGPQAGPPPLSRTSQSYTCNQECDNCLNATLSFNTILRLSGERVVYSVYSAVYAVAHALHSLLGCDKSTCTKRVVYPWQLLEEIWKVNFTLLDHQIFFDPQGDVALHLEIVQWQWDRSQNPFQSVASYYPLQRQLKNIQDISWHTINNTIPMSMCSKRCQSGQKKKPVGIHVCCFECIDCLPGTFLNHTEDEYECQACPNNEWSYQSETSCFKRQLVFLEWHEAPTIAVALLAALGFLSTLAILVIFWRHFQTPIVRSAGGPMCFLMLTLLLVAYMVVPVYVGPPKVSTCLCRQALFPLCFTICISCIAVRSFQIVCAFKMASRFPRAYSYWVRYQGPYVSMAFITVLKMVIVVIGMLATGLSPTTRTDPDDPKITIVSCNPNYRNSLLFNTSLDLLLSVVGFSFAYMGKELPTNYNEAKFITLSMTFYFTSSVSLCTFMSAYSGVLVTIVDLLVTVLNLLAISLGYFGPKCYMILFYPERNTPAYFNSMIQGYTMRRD
T1 sequence (Q7RTX0 21-852): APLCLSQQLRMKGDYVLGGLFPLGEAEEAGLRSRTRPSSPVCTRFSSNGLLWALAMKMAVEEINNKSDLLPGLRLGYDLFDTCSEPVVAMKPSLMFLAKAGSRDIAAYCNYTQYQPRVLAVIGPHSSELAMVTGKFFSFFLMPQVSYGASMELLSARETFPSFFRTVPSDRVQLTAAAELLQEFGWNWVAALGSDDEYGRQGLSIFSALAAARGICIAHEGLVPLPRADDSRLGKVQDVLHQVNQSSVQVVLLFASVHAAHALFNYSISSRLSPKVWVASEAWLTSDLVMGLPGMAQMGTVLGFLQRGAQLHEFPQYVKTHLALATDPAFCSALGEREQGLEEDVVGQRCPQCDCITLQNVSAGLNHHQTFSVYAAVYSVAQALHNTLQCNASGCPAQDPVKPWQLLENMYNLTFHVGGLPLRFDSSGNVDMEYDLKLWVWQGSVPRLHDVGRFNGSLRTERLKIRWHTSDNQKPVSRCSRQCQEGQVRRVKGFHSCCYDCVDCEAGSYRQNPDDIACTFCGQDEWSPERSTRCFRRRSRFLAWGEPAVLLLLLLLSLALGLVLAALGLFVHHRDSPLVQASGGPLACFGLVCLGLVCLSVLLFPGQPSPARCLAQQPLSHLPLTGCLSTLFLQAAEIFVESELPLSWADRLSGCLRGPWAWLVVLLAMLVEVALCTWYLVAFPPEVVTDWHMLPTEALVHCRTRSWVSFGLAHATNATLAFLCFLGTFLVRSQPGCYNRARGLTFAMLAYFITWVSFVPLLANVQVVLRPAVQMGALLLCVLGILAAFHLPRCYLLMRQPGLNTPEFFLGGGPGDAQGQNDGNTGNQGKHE


Biological target: T1, human TAS1R2-C9S/TAS1R3-WT
Test: Calcium mobilisation assay, TAS1R2 variant C9S with TAS1R3-WT
Type: cell-based
Details: for Max ΔF/F0: maximal signal amplitude
From the text: The coding sequences for TAS1R2 and TAS1R3 were commercially synthesised, and the human codon was optimised for expression in human cells. The coding sequences of human TAS1R2 and TAS1R3 were subcloned and inserted into the mammalian expression vectors pcDNA6/myc-HisA and pcDNA4/myc-HisA (Invitrogen; Thermo Fisher Scientific; Illkirch, France) between the EcoRI and NotI restriction sites, generating the plasmids pcDNA6-TAS1R2 and pcDNA4-TAS1R3, respectively. To increase protein expression in mammalian cells, an upstream start codon was used, which was a sequence called MAX, corresponding to the QBI SP163 element also described in pcDNA4-HisMax (Invitrogen; Thermo Fisher Scientific; Illkirch, France). To measure the expression level of the receptor by immunohistochemistry, we used the FLAG sequence ([…]) in the C-terminal position, which encodes the FLAG tag epitope. SNP variants of TAS1R2 and TAS1R3 were constructed based on […], respectively, using site-directed mutagenesis (Genewiz; Leipzig, Germany).
The HEK293T cells were kindly provided by Jay P. Slack (Givaudan Flavors Corporation; Cincinnati, OH, USA). HEK293T cells stably transfected with Gα16gust44 [43, 67] were seeded in poly-D-lysine-coated clear-bottom black 96-well plates (0.35 × 10^5 cells/well) in high-glucose DMEM supplemented with 2 mM GlutaMAX, 10% dialysed foetal bovine serum with penicillin/streptomycin and G418 (400 μg/mL) at 37 °C and 6.3% CO2 in a humidified atmosphere as previously reported. […] As a negative control, HEK293T cells were mock-transfected with the empty expression vector. After a further 24 h of incubation, the HEK293T cells were washed with C1 buffer (130 mM NaCl, 5 mM KCl, 10 mM HEPES pH 7.4 and 2 mM CaCl2). The 96-well plates containing the cells were then stimulated with sweet-tasting compounds. […] Different concentration ranges were tested depending on the sweet compound injected. The Ca^2+ changes were expressed as fractional changes in fluorescent light intensity: ΔF/F = (F − F0)/F0, where F was the fluorescent light intensity at each point, and F0 was the value of emitted fluorescent light prior to stimulus application. To calculate dose–response relationships, the changes in fluorescence upon stimulus application were averaged, mock-subtracted and baseline-corrected. The dose–response data obtained were adjusted using a 4-parameter logistic equation. The half-maximal effective concentrations (EC50 values) and maximal signal amplitudes were calculated using SigmaPlot software (version 15.0) (Systat Software; San Jose, CA, USA).
For in vitro calcium mobilisation assay performed on hTAS1R2-SNPs, hTAS1R3-SNPs and mTAS1R3-I60T, 6 to 7 concentrations were tested for each sweet compound, plus buffer alone. All concentration–receptor combinations were measured in duplicate, and each experiment was repeated at least 4 times (8 wells/concentration). Results were expressed for each concentration as ΔF/F mean ± SEM and represented as dose–response curves.

Row | Molecule | EC50 | R1 = Variant EC50/WT EC50 | Max ΔF/F0
1 | OC[C@H]1O[C@H](O[C@]2(CCl)O[C@H](CCl)[C@@H](O)[C@@H]2O)[C@H](O)[C@@H](O)[C@H]1Cl [Sucralose] | 88 ± 15 µM | 1.0 | 0.72 ± 0.05
2 | O=S(=O)(O)NC1CCCCC1 [Cyclamate, cyclamate] | 1810 ± 55 µM | – | –
3 | C=C(C)[C@@H]1CC=C(/C=N/O)CC1 [Perillartine, perillartine] | 17.8 ± 1.2 µM | 1.0 | 1.29 ± 0.03
4 | C=C1C[C@@]23CC[C@H]4[C@@](C)(CCC[C@@]4(C)C(=O)O[C@@H]4O[C@H](CO)[C@@H](O)[C@H](O[C@@H]5O[C@H](CO)[C@@H](O)[C@H](O)[C@H]5O)[C@H]4O[C@@H]4O[C@H](CO)[C@@H](O)[C@H](O)[C@H]4O)[C@@H]2CC[C@]1(O[C@@H]1O[C@H](CO)[C@@H](O)[C@H](O[C@@H]2O[C@H](CO)[C@@H](O)[C@H](O)[C@H]2O)[C@H]1O[C@@H]1O[C@H](CO)[C@@H](O)[C@H](O)[C@H]1O)C3 [Rebaudioside M, rebaudioside M] | 23.7 ± 1.6 µM | 1.4 | 1.18 ± 0.03
5 | COc1ccc(CCC(=O)c2c(O)cc(O[C@@H]3O[C@H](CO)[C@@H](O)[C@H](O)[C@H]3O[C@@H]3O[C@@H](C)[C@H](O)[C@@H](O)[C@H]3O)cc2O)cc1O [NHDC, neohesperidin dihydrochalcone] | 99 ± 5.2 µM | 1.3 | 0.83 ± 0.02
6 | thaumatin | – | 0.9 | 0.61 ± 0.01
7 | CC1=CC(=O)NS(=O)(=O)O1 [Acesulfame K, acesulfame K] | 466 ± 54 µM | 0.7 | 0.32 ± 0.01
8 | brazzein (QDKCKKVYENYPVSKCQLANQCNYDCKLDKHARSGECFYDEKRNLQCICDYCEY; ends and bridges not checked; cysteine pairing not given here; UniProt P56552 1-54, looked up) [sweet-tasting protein obtained by recombinant production using the yeast Pichia pastoris] | – | 1.2 | 1.14 ± 0.03
9 | C[C@H](CC[C@@H](O[C@@H]1O[C@H](CO[C@@H]2O[C@H](CO)[C@@H](O)[C@H](O)[C@H]2O)[C@@H](O)[C@H](O)[C@H]1O[C@@H]1O[C@H](CO)[C@@H](O)[C@H](O)[C@H]1O)C(C)(C)O)[C@H]1CC[C@@]2(C)[C@@H]3CC=C4[C@@H](CC[C@H](O[C@@H]5O[C@H](CO[C@@H]6O[C@H](CO)[C@@H](O)[C@H](O)[C@H]6O)[C@@H](O)[C@H](O)[C@H]5O)C4(C)C)[C@]3(C)[C@H](O)C[C@]12C [Mogroside V, mogroside V] | 18.6 ± 1.6 µM | 1.1 | 1.32 ± 0.04
10 | COC(=O)[C@H](Cc1ccccc1)NC(=O)[C@H](CC(=O)O)NCCC(C)(C)C [Neotame] | 0.85 ± 0.16 µM | 1.0 | 0.66 ± 0.04
11 | thaumatin (protein, Eight disulfides, sweet-tasting plant protein, E957) ATFEIVNRCSYTVWAAASKGDAALDAGGRQLNSGESWTINVEPGTKGGKIWARTDCYFDDSGSGICKTGDCGGLLRCKRFGRPPTTLAEFSLNQYGKDYIDISNIKGFNVPMDFSPTTRGCRGVRCAADIVGQCPAKLKAPGGGCNDACTVFQTSEYCCTTGKCGPTEYSRFFKRLCPDAFSYVLDKPTTVTCPGSSNYRVTFCPTA | 6.6 ± 0.1 µM | – | –
